Source: PubChem BioAssay AID1963443 (Molecular Pharmacology Branch, DTP, NCI, 2024)

Tested on: MDA-MB-231 complex spheroids, growth inhibition
Assay: Anticancer human tumor MDA-MB-231 cell line growth inhibition [Asc];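 further: spheroids exposed to compounds for 7 days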
Settings: for IC50: curve of first compound; for viability, T/C: stronger effect = lower value
Method: Multicellular complex tumor spheroid response to apoptosis pathway targeting inhibitors Alrizomadlin, Pelcitoclax, and Dasminapant in combination with a variety of drugs and investigational agents in selected tumor cell lines
The MDM2 inhibitor alrizomadlin, the Bcl-2/Bcl-xL inhibitor pelcitoclax, and the IAPs inhibitor dasminapant were evaluated both individually and in combination with standard of care and investigational anticancer small molecules within a complex spheroid model of solid tumors. . Complex spheroids include a stromal component modeled by human endothelial cells (HUVEC) and fibroblasts modeled by human mesenchymal stem cells (MSCs). The concentration ranges selected for each drug and investigational agent were based upon clinically achievable concentrations if the clinical Cmax of the agent was known.
Compounds. The drugs and investigational agents: alrizomadlin (APG-115; NSC831270), pelcitoclax (APG-1252; NSC835773), dasminapant (APG-1387;NSC834197), TAK-243 (NSC785004), copanlisib (NSC809693), olaparib (NSC753686), talazoparib (NSC767125), cobimetinib (NSC 768068), eltanexor (KPT-8602, NSC 794443), abemaciclib (NSC 768073), sotorasib (NSC818433), adagrasib (NSC 831453), MRTX-1133 (NSC 836407), Iadademestat (ORY1001, NSC 806812), and RMC-4630 (NSC839698), were obtained from the NCI Developmental Therapeutics Program Chemical Repository. The FDA-approved anticancer drug set is available from the Developmental Therapeutics Program at https://dtp.cancer.gov/organization/dscb/obtaining/available plates.htm. […] The stock solutions were prepared in dimethyl sulfoxide (DMSO, Sigma-Aldrich, St. Louis, MO, cat. D2650) at 800-fold the tested concentration and stored at -70 degrees C prior to their use. All drugs and investigational agents were tested over a range starting from a high concentration at or near the clinical Cmax and decreasing in half-log increments. If the clinical Cmax for an agent had not been determined, the highest concentration tested was 10 microM.
The patient-derived cancer (PDC) cell lines include five colon adenocarcinomas: 186277-243-T-J2-PDC, 616215-338-R-J1-PDC, 439559-082-T-J2-PDC, 463943-066-T-J2-PDC, and 519858-162-T-J1-PDC; three pancreatic carcinomas: 323965-272-R-J2-PDC, 521955-158-R6-J3-PDC, and 521955-158-R2-J5-PDC; two uterine sarcomas: 327498-152-R-J2-PDC and 993429-296-R-J1-PDC; two rhabdomyosarcomas: 755483-174-R-J1-PDC and 772245-204-R-J1-PDC; two soft tissue sarcomas: 126254-015-R-J1-PDC and 494315-158-R-J1-PDC; two malignant fibrous histiocytomas: 317291-083-R-J1-PDC and 596521-263-R-J1-PDC; two breast carcinomas: 171881-019-R-J1-PDC and 885512-296-R-J2-PDC; and one ovarian carcinoma: 6556581-035-R-J-PDC were obtained from the NCI PDMR, (https://pdmr.cancer.gov). The established cell lines HSSY-2 synovial sarcoma (RRID:CVCL 8719), SYO-1 synovial sarcoma (RRID:CVCL_7146), MPNST malignant peripheral neural sheath tumor were obtained from the Sloan Kettering Institute. The following established cell lines were purchased from the American Type Culture Collection (ATCC, Manassas, VA), Sor the received from the NCI repository:, PANC-1 pancreatic carcinoma (CRL-1469, RRID:CVCL_0480), OVCAR-5 ovarian carcinoma (RRID:CVCL_1628), OVCAR-8 ovarian carcinoma (RRID:CVCL_1629), , MCF-7 breast carcinoma (CRL-12584, RRID:CVCL_0031), MDA-MB-231 breast carcinoma (CRL-12532, RRID:CVCL_0062), NCI-H1876 small cell lung carcinoma (CRL-5902, RRID:CVCL_1503), NCI-H510A small cell lung carcinoma (HTB-184, RRID:CVCL_1565), NCI-H1417 (CRL-5869, RRID:CVCL_1469), and NCI-H196 small cell lung carcinoma (CRL-5823, RRID:CVCL_1509). Dr. Peter Houghton (Greehey Children's Cancer Research Institute, University of Texas Health Science Center, San Antonio, TX) provided Rh-18 rhabdomyosarcoma (RRID:CVCL_1659). Pooled donor human umbilical vein endothelial cells (HUVEC, Lonza, cat. CC-2519) and human mesenchymal stem cells (hMSC, Lonza, cat. PT-2501) were purchased from Lonza (Walkersville, MD).
Cell Culture. […]

[1] = second compound 0.1 µM, first compound 0.0316 µM
[2] = second compound 0.1 µM, first compound 0.1 µM
[3] = second compound 0.1 µM, first compound 0.316 µM
[4] = second compound 0.1 µM, first compound 1 µM
[5] = second compound 0.1 µM, first compound 3.16 µM
[6] = second compound 0.1 µM, first compound 10 µM
[7] = second compound 0.316 µM, first compound 0.0316 µM
[8] = second compound 0.316 µM, first compound 0.1 µM
[9] = second compound 0.316 µM, first compound 0.316 µM
[10] = second compound 0.316 µM, first compound 1 µM
[11] = second compound 0.316 µM, first compound 3.16 µM
[12] = second compound 0.316 µM, first compound 10 µM
[13] = second compound 1 µM, first compound 0.0316 µM
[14] = second compound 1 µM, first compound 0.1 µM
[15] = second compound 1 µM, first compound 0.316 µM
[16] = second compound 1 µM, first compound 1 µM
[17] = second compound 1 µM, first compound 3.16 µM
[18] = second compound 1 µM, first compound 10 µM

| Structure (SMILES) | IC50 (second compound 0.1 µM) | IC50 (second compound 0.316 µM) | IC50 (second compound 1 µM) | viability, T/C [1] | viability, T/C [2] | viability, T/C [3] | viability, T/C [4] | viability, T/C [5] | viability, T/C [6] | viability, T/C [7] | viability, T/C [8] | viability, T/C [9] | viability, T/C [10] | viability, T/C [11] | viability, T/C [12] | viability, T/C [13] | viability, T/C [14] | viability, T/C [15] | viability, T/C [16] | viability, T/C [17] | also measured |
| --- | --- | --- | --- | --- | --- | --- | --- | --- | --- | --- | --- | --- | --- | --- | --- | --- | --- | --- | --- | --- | --- |
| C=C(F)C(=O)N1CCN(c2nc(OCC3CCCN3C)nc3c2CCN(c2cccc4cccc(Cl)c24)C3)CC1CC#N (stereo not given) + Cc1c(S(C)(=O)=O)c(-c2cc(F)cc(N3CCN(c4ccc(NS(=O)(=O)c5ccc(NC(CCN6CCC(C(=O)OCCCP(=O)(O)O)CC6)CSc6ccccc6)c(S(=O)(=O)C(F)(F)F)c5)cc4)CC3)c2)c(-c2ccc(Cl)cc2)n1C(C)C | 2290 nM | 2110 nM | 1850 nM | 92.2% | 97.2% | 97.2% | 101% | 31.6% | 0.12% | 106% | 108% | 106% | 109% | 18.6% | 0.09% | 103% | 100% | 97.5% | 97.4% | 8.81% | IC50 (second compound 3.16 µM): 1740 nM; IC50 (second compound 10 µM): 1710 nM; viability, T/C [18]: 0.09%; viability, T/C (second compound 3.16 µM, first compound 0.0316 µM): 95.8%; viability, T/C (second compound 3.16 µM, first compound 0.1 µM): 93%; viability, T/C (second compound 3.16 µM, first compound 0.316 µM): 94.9%; viability, T/C (second compound 3.16 µM, first compound 1 µM): 91.8%; viability, T/C (second compound 3.16 µM, first compound 3.16 µM): 4.45%; viability, T/C (second compound 3.16 µM, first compound 10 µM): 0.09%; viability, T/C (second compound 10 µM, first compound 0.0316 µM): 104%; viability, T/C (second compound 10 µM, first compound 0.1 µM): 100%; viability, T/C (second compound 10 µM, first compound 0.316 µM): 99.7%; viability, T/C (second compound 10 µM, first compound 1 µM): 91.3%; viability, T/C (second compound 10 µM, first compound 3.16 µM): 2.9%; viability, T/C (second compound 10 µM, first compound 10 µM): 0.14% |
| C=CC(=O)N1CCN(c2nc(=O)n(-c3c(C)ccnc3C(C)C)c3nc(-c4c(O)cccc4F)c(F)cc23)C(C)C1 (stereo not given) + CNC(C)C(=O)NC1CN(S(=O)(=O)c2cccc(S(=O)(=O)N3CCC4CCC(C(=O)NC(c5ccccc5)c5ccccc5)N4C(=O)C(NC(=O)C(C)NC)C3)c2)CCC2CCC(C(=O)NC(c3ccccc3)c3ccccc3)N2C1=O | < 31.6 nM | < 31.6 nM | < 31.6 nM | 1.84% | 1.71% | 1.31% | 0.87% | 2.25% | 1.71% | 1.02% | 1.06% | 2.22% | 1.43% | 1.4% | 2.33% | 1.09% | 1.13% | 1.81% | 1.73% | 1.35% | IC50 (second compound 0.01 µM): < 31.6 nM; IC50 (second compound 0.0316 µM): < 31.6 nM; viability, T/C (second compound 0.01 µM, first compound 0.0316 µM): 4.27%; viability, T/C (second compound 0.01 µM, first compound 0.1 µM): 4.47%; viability, T/C (second compound 0.01 µM, first compound 0.316 µM): 3.48%; viability, T/C (second compound 0.01 µM, first compound 1 µM): 4.14%; viability, T/C (second compound 0.01 µM, first compound 3.16 µM): 3.21%; viability, T/C (second compound 0.01 µM, first compound 10 µM): 2.6%; viability, T/C (second compound 0.0316 µM, first compound 0.0316 µM): 1.6%; viability, T/C (second compound 0.0316 µM, first compound 0.1 µM): 1.97%; viability, T/C (second compound 0.0316 µM, first compound 0.316 µM): 3.62%; viability, T/C (second compound 0.0316 µM, first compound 1 µM): 3.15%; viability, T/C (second compound 0.0316 µM, first compound 3.16 µM): 2.97%; viability, T/C (second compound 0.0316 µM, first compound 10 µM): 3.77%; viability, T/C [18]: 3.82% |
